Several values for one entry are separate records, joined by “and”; a condition that tells them apart may be missing. Equal values may be shown once. Read-outs that look alike come from different tables or passages of the source.
Legend:
S. aureus ATCC 9144 = experiment: inhibition of bacterial growth, OD600 after 20 h; type: cell-based, Staphylococcus aureus; conditions: SSA 5.0 mM, 2.5% ethanol, negative = enhanced growth; for inhibition at 5000 µM: Staphylococcus aureus, ATCC9144, 20 h, read-out: Percentage inhibition of bacterial growth, ATCC 9144 (S. aureus)
Experimental: (§1) With the self-associative properties of 1–10 established, the antimicrobial activity of these SSAs were determined against a panel of clinically relevant, high-priority pathogens including: P. aeruginosa PAO1; Klebsiella pneumonia (K. pneumoniae) M6; E. coli NCTC 12923; Acinetobacter baumannii (A. baumannii) ATCC 17978; S. aureus ATCC 9144; Enterococcus faecalis (E. faecalis) NCTC 775; and Enterococcus faecium (E. faecium) NCTC 12204. […] However, it should be noted that the SSA stock solution was prepared in a H2O 5% EtOH solution, to ensure that the SSA aggregates formed were in line with those characterised within the scope of the SSA self-association studies.
(§2) Section 3: Biological methods
(§3) These methods were taken directly from UK Health and Security Office (UKHSA) standard […]
(§4) Preparation of Luria Broth media (LB): Yeast extract (5.0 g), tryptone (10.0 g) and sodium chloride (10.0 g) were dissolved in dH₂O (1.0 L) then divided into bottles and autoclaved.
(§5) Preparation of Luria Broth (LB) agar plates: Agar (6.0 g) was added to LB (400 mL) and autoclaved. Once cool, the LB agar was poured into sterile petri dishes under sterile conditions and allowed to set. LB plates were stored at 4 °C until use.
(§6) Preparation of bacterial plates: Sterile LB agar plates were streaked using streaked using the desired bacteria i) Pseudomonas aeruginosa (P.aeruginosa) PAO1, ii) Klebsiella pneumoniae (K. pneumoniae) M6 iii) E. coli NCTC 12923 and iv) Acinetobacter baumannii (A. baumannii) ATCC 17978 and Gram-positive i) Staphylococcus aureus (S. aureus) ATCC 9144 ii) Enterococcus faecalis (E. faecalis) NCTC 775 and iii) Enterococcus faecium (E. faecium ) NCTC 12204, then incubated at 37 °C overnight.
(§7) Preparation of Inoculum: An initial culture was made up by inoculating LB media (5 mL) with a single colony of bacteria under sterile conditions and incubated at 37 °C with shaking overnight. The following day, overnight bacterial cultures were subcultured into fresh LB medium to a starting OD600 of 0.01.
(§8) Preparation of 96 well microplate for MIC50: The 1:100 cell suspension (150 µL) was dispensed into individual wells under sterile conditions. SSAs (30 µL) were added to the wells to equal a total volume of 180 µL in the wells. Six repeats of each concentration for each SSA were created each plate. The plates were sealed using parafilm, then incubated at 37 °C in a microplate reader for 20 hours. OD600 endpoint data was used to generate growth curves. […]

E. faecium NCTC 12204 = experiment: inhibition of bacterial growth, OD600 after 20 h; type: cell-based, Enterococcus faecium; conditions: SSA 5.0 mM, 2.5% ethanol, negative = enhanced growth
Experimental: as §1, §2, §3, §4, §5, §6, §7, §8

[1] = metabolic stability in liver microsomes; type: in vitro ADME, rat; conditions: for microsomal CLint at 1 µM: read-out: in vitro CLint; for half-life at 1 µM: read-out: in vitro t1/2; for CLint scaled at 1 µM: liver microsomes, read-out: Scale-up CLint
Experimental: (§9) Metabolic stability was assessed in mouse and rat liver microsomes. Microsomes are subcellular fractions of hepatocytes and contain CYP450s, the predominant enzymes involved in first-pass metabolism.[66] […] A plasma protein binding assay was performed to assess the extent of compound binding to plasma proteins. This is key as only unbound compound is free to distribute and exert a pharmacological effect. […] To assess the potential for this sub-class of SSAs to be developed as drugs for oral administration, Caco-2 permeability assays were also performed, as a cellular model indicative of human intestinal permeability.
(§10) Section 3: Biological methods […]
(§11) In vitro Absorption, Distribution and Metabolism
(§12) These studies were performed by Contract Research Organisation (CRO) Pharmaron. The methodology provided within the ESI is published within the express permission of this organisation. The percentage of a compound recovered during the analysis process should be 100 %; any deviation from this value indicates experimental limitations such as unintended potential non-specific binding events to experimental equipment, solubility issues, etc.
(§13) Metabolic Stability in Rat and Mouse Liver Microsomes:
(§14) The metabolic stability of compounds at a concentration of 1 µM, in rat and mouse liver […]
(§15) / mL) in the presence and absence of cofactor (NADPH) at 37 °C. Aliquots of each incubation were removed at 0.5, 5, 15, 30 and 60 minutes. The reaction was stopped by the addition of 5 volumes of cold acetonitrile containing analytical internal standard (IS).
(§16) Samples were then centrifuged at 3 °C, 220 g for 40 minutes to remove cell debris. The supernatant was aliquoted and added to ultra-pure H2O in a 1:1 ratio in preparation for LC- […]
(§17) Samples were analysed using a Shimadzu liquid chromatography system coupled to a Triple Quad 6500+ mass spectrometry (AB Inc.) Separation of compounds was achieved using an HSS T3 column (50 x 2.1 mm) at a temperature of 40 °C and a binary mobile phase gradient […]
(§18) at a flow rate of 0.7 mL/min. […]
(§19) acid in water) and 5 % solvent B (0.1 % formic acid in acetonitrile). […]
(§20) solvent B at 0.7 minutes, held for 0.5 minutes and then immedi ately returned to initial conditions. Sample analysis was by electrospray ionisation. […]

[2] = metabolic stability in liver microsomes; type: in vitro ADME, mouse; conditions: for microsomal CLint at 1 µM: read-out: in vitro CLint; for half-life at 1 µM: read-out: in vitro t1/2; for CLint scaled at 1 µM: liver microsomes, read-out: Scale-up CLint
Experimental: as §9, §10, §11, §12, §13, §14, §15, §16, §17, §18, §19, §20

[3] = rat liver microsomes, 1 µM, 0.5 mg protein/mL
[4] = mouse liver microsomes, 1 µM, 0.5 mg protein/mL

| Hepatic Extraction Ratio (ER) ([1]; rat) | Predicted Hepatic CLH ([1]; rat) [mL/min/kg] | microsomal CLint at 1 µM [1, 3] [µL/min/mg] | half-life at 1 µM [1, 3] [h] | Remaining percentage ([1]; rat, +Cofactors, 0.5 min) [%] | Remaining percentage ([1]; rat, +Cofactors, 5 min) [%] | Remaining percentage ([1]; rat, +Cofactors, 15 min) [%] | Remaining percentage ([1]; rat, +Cofactors, 30 min) [%] | Remaining percentage ([1]; rat, +Cofactors, 60 min) [%] | Remaining percentage ([1]; rat, -Cofactors, 0.5 min) [%] | Remaining percentage ([1]; rat, -Cofactors, 60 min) [%] | Hepatic Extraction Ratio (ER) ([2]; mouse) | Predicted Hepatic CLH ([2]; mouse) [mL/min/kg] | Remaining percentage ([2]; mouse, +Cofactors, 0.5 min) [%] | Remaining percentage ([2]; mouse, +Cofactors, 5 min) [%] | Remaining percentage ([2]; mouse, +Cofactors, 15 min) [%] | Remaining percentage ([2]; mouse, +Cofactors, 30 min) [%] | Remaining percentage ([2]; mouse, +Cofactors, 60 min) [%] | Remaining percentage ([2]; mouse, -Cofactors, 0.5 min) [%] | Remaining percentage ([2]; mouse, -Cofactors, 60 min) [%] | Structure (SMILES) | further results |
| --- | --- | --- | --- | --- | --- | --- | --- | --- | --- | --- | --- | --- | --- | --- | --- | --- | --- | --- | --- | --- | --- |
| < 0.21 | < 14.42 | < 7.5 | > 3.08 | 100.00 | 96.56 | 99.83 | 96.48 | 95.66 | 100.00 | 102.14 | < 0.26 | < 23.07 | 100.00 | 100.09 | 98.69 | 98.11 | 105.07 | 100.00 | 103.10 | O=C(O)CC[C@H](NC(=O)Nc1ccc(C(F)(F)F)cc1)C(=O)O [SSA 1] | Percentage inhibition of bacterial growth, ATCC 9144 (S. aureus) (S. aureus ATCC 9144): 99%; inhibition at 5000 µM (S. aureus ATCC 9144): 98.7%; Percentage inhibition of bacterial growth, NCTC 12204 (E. faecium) (E. faecium NCTC 12204): 99.02% and 99%; CLint scaled at 1 µM ([1]; rat): < 18.3 mL/min/kg; microsomal CLint at 1 µM [2, 4]: < 7.5 µL/min/mg; half-life at 1 µM [2, 4]: > 3.08 h; CLint scaled at 1 µM ([2]; mouse): < 31 mL/min/kg |
| < 0.21 | < 14.42 |  |  | 100.00 | 95.53 | 94.28 | 97.57 | 96.64 | 100.00 | 97.74 | < 0.26 | < 23.07 | 100.00 | 101.97 | 102.46 | 101.55 | 102.31 | 100.00 | 102.89 | O=C(O)CC[C@H](NC(=O)Nc1ccc(C(F)(F)F)cc1)C(=O)O [SSA 2] | Percentage inhibition of bacterial growth, ATCC 9144 (S. aureus) (S. aureus ATCC 9144): 79.71% and 80%; Percentage inhibition of bacterial growth, NCTC 12204 (E. faecium) (E. faecium NCTC 12204): 66.25% and 66%; Scale-up CLint ([1]; rat): < 18.30 mL/min/kg; in vitro CLint [1, 3]: < 7.50 µL/min/mg; in vitro t1/2 [1, 3]: > 3.0797 h; Scale-up CLint ([2]; mouse): < 31.02 mL/min/kg; in vitro CLint [2, 4]: < 7.50 µL/min/mg; in vitro t1/2 [2, 4]: > 3.0797 h |
| < 0.21 | < 14.42 | < 7.5 | > 3.08 | 100.00 | 95.07 | 99.07 | 97.86 | 98.31 | 100.00 | 104.13 | < 0.26 | < 23.07 | 100.00 | 99.16 | 100.05 | 98.24 | 98.27 | 100.00 | 93.98 | O=C(O)CC[C@@H](NC(=O)Nc1ccc(C(F)(F)F)cc1)C(=O)O [SSA 3] | Percentage inhibition of bacterial growth, ATCC 9144 (S. aureus) (S. aureus ATCC 9144; listed as 3): 99%; inhibition at 5000 µM (S. aureus ATCC 9144): 99.1%; inhibition at 5000 µM (E. faecium NCTC 12204; Enterococcus faecium, NCTC12204, 20 h, read-out: Percentage inhibition of bacterial growth, NCTC 12204 (E. faecium)): 99.4%; Percentage inhibition of bacterial growth, NCTC 12204 (E. faecium) (E. faecium NCTC 12204; listed as 3): 99%; CLint scaled at 1 µM ([1]; rat): < 18.3 mL/min/kg; microsomal CLint at 1 µM [2, 4]: < 7.5 µL/min/mg; half-life at 1 µM [2, 4]: > 3.08 h; CLint scaled at 1 µM ([2]; mouse): < 31 mL/min/kg |
| < 0.21 | < 14.42 | < 7.5 | > 3.08 | 100.00 | 97.95 | 96.49 | 99.04 | 100.06 | 100.00 | 102.63 | < 0.26 | < 23.07 | 100.00 | 101.88 | 100.09 | 97.61 | 103.16 | 100.00 | 103.83 | O=C(O)CC[C@H](NC(=O)Nc1ccc(Br)cc1)C(=O)O [SSA 9] | Percentage inhibition of bacterial growth, ATCC 9144 (S. aureus) (S. aureus ATCC 9144; listed as 9): 60.74% and 61%; Percentage inhibition of bacterial growth, NCTC 12204 (E. faecium) (E. faecium NCTC 12204; listed as 9): 44.44% and 44%; CLint scaled at 1 µM ([1]; rat): < 18.3 mL/min/kg; microsomal CLint at 1 µM [2, 4]: < 7.5 µL/min/mg; half-life at 1 µM [2, 4]: > 3.08 h; CLint scaled at 1 µM ([2]; mouse): < 31 mL/min/kg |
